Laboratory results from the NIST ThermoML archive (doi:10.1021/je900672g).

Assay: isobaric coefficient of expansion
Conditions: Liquid, DSC

CCC#N [propanenitrile]
isobaric coefficient of expansion
Conditions | 278.15 K | 288.15 K | 298.15 K | 308.15 K | 318.15 K | 328.15 K | 338.15 K | 348.15 K
5000 kPa | 0.00122 1/K | 0.00125 1/K | 0.00128 1/K | 0.0013 1/K | 0.00135 1/K | 0.00139 1/K | 0.00144 1/K | 0.0015 1/K
10000 kPa | 0.0012 1/K | 0.00121 1/K | 0.00123 1/K | 0.00126 1/K | 0.00129 1/K | 0.00133 1/K | 0.00136 1/K | 0.00141 1/K
15000 kPa | 0.00117 1/K | 0.00118 1/K | 0.0012 1/K | 0.00121 1/K | 0.00125 1/K | 0.00127 1/K | 0.0013 1/K | 0.00133 1/K
20000 kPa | 0.00114 1/K | 0.00115 1/K | 0.00117 1/K | 0.00118 1/K | 0.0012 1/K | 0.00122 1/K | 0.00125 1/K | 0.00127 1/K
25000 kPa | 0.00111 1/K | 0.00112 1/K | 0.00113 1/K | 0.00114 1/K | 0.00116 1/K | 0.00118 1/K | 0.0012 1/K | 0.00122 1/K
30000 kPa | 0.00109 1/K | 0.0011 1/K | 0.00111 1/K | 0.00111 1/K | 0.00113 1/K | 0.00114 1/K | 0.00115 1/K | 0.00117 1/K
35000 kPa | 0.00107 1/K | 0.00107 1/K | 0.00108 1/K | 0.00109 1/K | 0.0011 1/K | 0.00111 1/K | 0.00112 1/K | 0.00113 1/K
40000 kPa | 0.00104 1/K | 0.00105 1/K | 0.00105 1/K | 0.00106 1/K | 0.00106 1/K | 0.00107 1/K | 0.00107 1/K | 0.00108 1/K
45000 kPa | 0.00102 1/K | 0.00103 1/K | 0.00103 1/K | 0.00104 1/K | 0.00104 1/K | 0.00105 1/K | 0.00105 1/K | 0.00105 1/K
50000 kPa | 0.001 1/K | 0.00101 1/K | 0.00101 1/K | 0.00101 1/K | 0.00102 1/K | 0.00102 1/K | 0.00102 1/K | 0.00103 1/K
55000 kPa | 0.000991 1/K | 0.000992 1/K | 0.000993 1/K | 0.000994 1/K | 0.001 1/K | 0.001 1/K | 0.00101 1/K | 0.00101 1/K

N#Cc1ccccc1 [benzonitrile]
isobaric coefficient of expansion
Conditions | 5000 kPa | 10000 kPa | 15000 kPa | 20000 kPa | 25000 kPa | 30000 kPa | 35000 kPa | 40000 kPa | 45000 kPa | 50000 kPa
278.15 K | 0.000841 1/K | 0.000831 1/K | 0.000829 1/K | 0.000812 1/K | 0.000795 1/K | 0.000791 1/K | 0.00078 1/K | 0.000772 1/K | 0.00076 1/K | 0.000752 1/K
288.15 K | 0.000845 1/K | 0.000832 1/K | 0.000819 1/K | 0.000811 1/K | 0.000799 1/K | 0.000789 1/K | 0.000772 1/K | 0.000771 1/K | 0.000759 1/K | 0.000754 1/K
298.15 K | 0.000849 1/K | 0.000832 1/K | 0.000825 1/K | 0.000809 1/K | 0.000798 1/K | 0.000788 1/K | 0.000775 1/K | 0.000773 1/K | 0.000759 1/K | 0.000749 1/K
308.15 K | 0.000852 1/K | 0.000842 1/K | 0.000827 1/K | 0.000814 1/K | 0.000799 1/K | 0.000788 1/K | 0.000773 1/K | 0.000765 1/K | 0.000755 1/K | 0.000743 1/K
318.15 K | 0.000857 1/K | 0.00084 1/K | 0.000826 1/K | 0.000811 1/K | 0.000798 1/K | 0.000789 1/K | 0.000773 1/K | 0.000764 1/K | 0.000754 1/K | 0.000743 1/K
328.15 K | 0.000853 1/K | 0.000837 1/K | 0.000819 1/K | 0.000808 1/K | 0.000794 1/K | 0.000782 1/K | 0.000772 1/K | 0.00076 1/K | 0.000751 1/K | 0.000736 1/K
338.15 K | 0.000863 1/K | 0.000843 1/K | 0.000826 1/K | 0.000813 1/K | 0.000799 1/K | 0.000786 1/K | 0.000776 1/K | 0.000762 1/K | 0.000747 1/K | 0.000738 1/K
348.15 K | 0.00087 1/K | 0.00085 1/K | 0.000832 1/K | 0.000818 1/K | 0.000802 1/K | 0.000788 1/K | 0.000774 1/K | 0.000761 1/K | 0.000749 1/K | 0.000737 1/K

C[N+](=O)[O-] [nitromethane]
isobaric coefficient of expansion
Conditions | 278.15 K | 288.15 K | 298.15 K | 308.15 K | 318.15 K | 328.15 K | 338.15 K | 348.15 K
5000 kPa | 0.00116 1/K | 0.00118 1/K | 0.00121 1/K | 0.00123 1/K | 0.00126 1/K | 0.00129 1/K | 0.00134 1/K | 0.00138 1/K
10000 kPa | 0.00114 1/K | 0.00116 1/K | 0.00118 1/K | 0.0012 1/K | 0.00123 1/K | 0.00126 1/K | 0.00128 1/K | 0.00132 1/K
15000 kPa | 0.00113 1/K | 0.00114 1/K | 0.00116 1/K | 0.00118 1/K | 0.00119 1/K | 0.00121 1/K | 0.00124 1/K | 0.00127 1/K
20000 kPa | 0.0011 1/K | 0.00112 1/K | 0.00113 1/K | 0.00115 1/K | 0.00116 1/K | 0.00117 1/K | 0.0012 1/K | 0.00122 1/K
25000 kPa | 0.00108 1/K | 0.0011 1/K | 0.00111 1/K | 0.00112 1/K | 0.00113 1/K | 0.00114 1/K | 0.00117 1/K | 0.00119 1/K
30000 kPa | 0.00106 1/K | 0.00108 1/K | 0.00109 1/K | 0.0011 1/K | 0.00111 1/K | 0.00112 1/K | 0.00113 1/K | 0.00115 1/K
35000 kPa | 0.00105 1/K | 0.00106 1/K | 0.00107 1/K | 0.00108 1/K | 0.00109 1/K | 0.0011 1/K | 0.00111 1/K | 0.00112 1/K
40000 kPa | 0.00103 1/K | 0.00104 1/K | 0.00105 1/K | 0.00105 1/K | 0.00106 1/K | 0.00107 1/K | 0.00107 1/K | 0.00108 1/K
45000 kPa | 0.00102 1/K | 0.00102 1/K | 0.00103 1/K | 0.00103 1/K | 0.00104 1/K | 0.00105 1/K | 0.00105 1/K | 0.00106 1/K
50000 kPa | 0.001 1/K | 0.00101 1/K | 0.00101 1/K | 0.00102 1/K | 0.00103 1/K | 0.00103 1/K | 0.00103 1/K | 0.00103 1/K
55000 kPa | 0.000986 1/K | 0.000992 1/K | 0.000998 1/K | 0.001 1/K | 0.00101 1/K | 0.00101 1/K | 0.00102 1/K | 0.00102 1/K
